Here are results for 3 compounds from patent US20080194482A1, “Selective Apac2 Receptor Peptide Agonists” (priority 2005, published 2008).

Square brackets hold non-standard residues; d marks the D form. Peptide text beside a SMILES is read from it. * marks the point of attachment. Orn = NCCC[C@H](N)C(=O)O; Hexanoyl = CCCCCC(=O)*; Aib = CC(C)(N)C(=O)O

The target of data set [1] is T1, human VPAC2 (Homo sapiens, UniProt P41587).
T1 construct: expressed in transfected cells
T1 sequence (P41587 24-438): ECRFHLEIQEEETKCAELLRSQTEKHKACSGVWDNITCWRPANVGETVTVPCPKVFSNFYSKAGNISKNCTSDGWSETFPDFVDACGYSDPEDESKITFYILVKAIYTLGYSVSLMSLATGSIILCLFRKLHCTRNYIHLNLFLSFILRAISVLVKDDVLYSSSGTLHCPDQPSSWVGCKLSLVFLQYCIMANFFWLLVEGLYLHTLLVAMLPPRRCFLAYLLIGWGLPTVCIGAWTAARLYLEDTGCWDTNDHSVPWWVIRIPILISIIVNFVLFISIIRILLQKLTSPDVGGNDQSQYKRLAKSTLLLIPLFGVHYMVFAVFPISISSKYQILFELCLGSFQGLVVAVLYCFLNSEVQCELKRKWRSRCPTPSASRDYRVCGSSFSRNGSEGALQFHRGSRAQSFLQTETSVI
Kind of data set: Alpha screen cAMP assay, in vitro potency at human VPAC2 receptor. Format: cell-based. To be noted: cAMP generation; single result from two analyses in a single run, some values average of more than one experiment. A general note: Cyclic AMP is a second messenger, typically raised through Gs and lowered through Gi signalling.
Procedure: Alpha screen: Cells are washed in the culture flask once with PBS. Then, the cells are rinsed with enzyme free dissociation buffer. The dissociated cells are removed. The cells are then spun down and washed in stimulation buffer. For each data point, 50,000 cells suspended in stimulation buffer are used. To this buffer, Alpha screen acceptor beads are added along with the stimuli. This mixture is incubated for 60 minutes. Lysis buffer and Alpha screen donor beads are added and are incubated for 60 to 120 minutes. The Alpha screen signal (indicative of intracellular cAMP levels) is read in a suitable instrument (e.g. AlphaQuest from Perkin-Elmer). Steps including Alpha screen donor and acceptor beads are performed in reduced light. The EC50 for cAMP generation is calculated from the raw signal or is based on absolute cAMP levels as determined by a standard curve performed on each plate.
Results for each agonist are, at minimum, from two analyses performed in a single run. For some agonists, the results are the mean of more than one run. The tested peptide concentrations are: 10000, 1000, 100, 10, 3, 1, 0.1, 0.01, 0.003, 0.001, 0.0001 and 0.00001 nM.

The target in data set [2] is T1, human VPAC2. Kind of data set: Filter binding assay, 125I-labeled VIP tracer, VPAC2 membranes. To be noted: read-out: Human VPAC2 Receptor Binding (IC50; nM).
Another data set addresses T2, human PAC1 (Homo sapiens, UniProt P41586).
T2 construct: expressed in transfected cells
T2 sequence (P41586 21-468): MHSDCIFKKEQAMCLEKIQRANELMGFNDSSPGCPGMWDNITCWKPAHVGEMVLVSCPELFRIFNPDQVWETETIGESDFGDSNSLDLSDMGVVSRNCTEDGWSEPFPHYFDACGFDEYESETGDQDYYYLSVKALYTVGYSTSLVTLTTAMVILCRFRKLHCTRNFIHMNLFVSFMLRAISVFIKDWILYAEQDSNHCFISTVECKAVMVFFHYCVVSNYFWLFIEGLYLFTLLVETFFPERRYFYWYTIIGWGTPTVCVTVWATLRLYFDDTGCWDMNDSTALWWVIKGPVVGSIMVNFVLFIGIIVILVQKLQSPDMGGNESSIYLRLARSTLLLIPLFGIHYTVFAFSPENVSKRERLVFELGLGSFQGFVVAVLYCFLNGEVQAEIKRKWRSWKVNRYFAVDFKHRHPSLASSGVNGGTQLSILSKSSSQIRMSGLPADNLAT
Kind of data set: Filter binding assay, 125I-labeled PACAP-27 tracer, PAC1 membranes. The settings on record: read-out: Human PAC1 Receptor Binding (IC50; nM).

In a further data set the target is T3, rat VPAC2 receptor (Rattus norvegicus, UniProt P35000).
T3 construct: expressed in transfected cells; host or cells: CHO-PO (transient, Lipofectamine)
T3 sequence (P35000 23-437): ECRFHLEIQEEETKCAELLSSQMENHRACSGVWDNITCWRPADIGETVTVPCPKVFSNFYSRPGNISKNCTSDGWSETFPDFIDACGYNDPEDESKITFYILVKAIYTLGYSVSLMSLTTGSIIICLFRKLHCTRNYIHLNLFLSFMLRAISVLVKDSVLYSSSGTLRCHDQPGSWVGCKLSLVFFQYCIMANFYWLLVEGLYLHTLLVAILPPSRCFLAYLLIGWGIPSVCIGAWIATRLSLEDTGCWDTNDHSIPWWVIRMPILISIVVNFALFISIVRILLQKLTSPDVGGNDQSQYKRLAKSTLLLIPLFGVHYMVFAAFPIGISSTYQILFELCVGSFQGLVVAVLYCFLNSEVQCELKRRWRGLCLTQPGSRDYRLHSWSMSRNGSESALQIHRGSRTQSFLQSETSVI
Kind of data set: DiscoveRx cAMP assay, in vitro potency at rat VPAC2 receptor. Format: cell-based. To be noted: CHO-PO cells transiently transfected with rat VPAC2; cAMP generation; mean of two independent runs. As to the method: DiscoveRx: CHO-PO cells are transiently transfected with rat VPAC1 or VPAC2 receptor DNA using commercially available transfection reagents (Lipofectamine from Invitrogen). The cells are seeded at a density of 10,000/well in a 96-well plate and are allowed to grow for 3 days in […] culture medium. At day 3, the assay is performed.
On the day of the experiment, the medium is removed. Also, the cells are washed twice. The cells are incubated in assay buffer plus IBMX for 15 minutes at room temperature. Afterwards, the stimuli are added and are dissolved in assay buffer. The stimuli are present for 30 minutes. Then, the assay buffer is gently removed. The cell lysis reagent of the DiscoveRx cAMP kit is added. Thereafter, the standard protocol for developing the cAMP signal as described by the manufacturer is used (DiscoveRx Inc., USA). EC50 values for cAMP generation are calculated from the raw signal or are based on absolute cAMP levels as determined by a standard curve performed on each plate.
Results for each agonist are the mean of two independent runs. Rat VPAC1 and VPAC2 results are only generated using the DiscoveRx assay.

The target of another data set is T4, human VPAC1 (Homo sapiens, UniProt P32241).
T4 construct: expressed in transfected cells
T4 sequence (P32241 31-457): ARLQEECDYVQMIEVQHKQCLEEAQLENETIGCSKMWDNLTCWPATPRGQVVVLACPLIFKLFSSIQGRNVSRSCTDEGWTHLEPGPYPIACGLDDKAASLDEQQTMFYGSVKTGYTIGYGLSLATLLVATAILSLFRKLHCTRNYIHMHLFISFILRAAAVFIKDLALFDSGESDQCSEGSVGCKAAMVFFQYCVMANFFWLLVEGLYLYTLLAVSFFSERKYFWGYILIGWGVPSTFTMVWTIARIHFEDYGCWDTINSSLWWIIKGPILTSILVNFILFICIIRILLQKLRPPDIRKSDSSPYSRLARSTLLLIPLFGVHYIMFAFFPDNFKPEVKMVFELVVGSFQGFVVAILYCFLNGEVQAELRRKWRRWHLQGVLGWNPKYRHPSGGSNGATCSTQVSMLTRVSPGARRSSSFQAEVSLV
In words: Filter binding assay, 125I-labeled VIP tracer, VPAC1 membranes. The settings on record: read-out: Human VPAC1 Receptor Binding (IC50; nM).

Data set [3] in a line: Rat serum stability (activity remaining, CHO-VPAC2 DiscoveRx read-out). Format: in vitro ADME. The procedure, abridged: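 Peptides preincubated overnight in rat serum at 37 °C without aprotinin versus 4 °C with aprotinin, then tested as 11-point 5× dilutions in duplicate on CHO-VPAC2 cells, 30 min at RT. cAMP measured by DiscoveRx kit against standards; EC50 derived for each aliquot.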

Usually EC50 stands for the concentration needed to bring the measured effect to its halfway point. A lower EC50 goes with an effect from little substance. Usually IC50 stands for the concentration needed to halve the response being measured. Consider `CCCCCC(=O)N[C@@H](Cc1c[nH]cn1)C(=O)N[C@@H](CO)C(=O)N[C@@H](CC(=O)O)C(=O)N[C@@H](C)C(=O)N[C@H](C(=O)N[C@@H](Cc1ccccc1)C(=O)N[C@H](C(=O)N[C@@H](CC(=O)O)C(=O)N[C@@H](CC(N)=O)C(=O)N[C@@H](Cc1ccc(O)cc1)C(=O)N[C@H](C(=O)N[C@@H](CCCN)C(=O)N[C@@H](CC(C)C)C(=O)N[C@@H](CCCNC(=N)N)C(=O)NC(C)(C)C(=O)N[C@@H](CO)C(=O)N[C@H](C(=O)N[C@@H](C)C(=O)N[C@@H](C)C(=O)NC(C)(C)C(=O)N[C@@H](CCCCN)C(=O)N[C@@H](Cc1ccc(O)cc1)C(=O)N[C@@H](CC(C)C)C(=O)N[C@@H](CCC(N)=O)C(=O)N[C@@H](CO)C(=O)N[C@H](C(=O)N[C@@H](CCCN)C(=O)N[C@@H](CC(N)=O)C(=O)N[C@@H](CCCN)C(=O)NCC(=O)NCC(=O)N1CCC[C@H]1C(=O)N[C@@H](CO)C(=O)N[C@@H](CO)C(=O)NCC(=O)N[C@@H](C)C(=O)N1CCC[C@H]1C(=O)N1CCC[C@H]1C(=O)N1CCC[C@H]1C(=O)N[C@@H](CO)C(=O)O)[C@@H](C)CC)C(C)C)[C@@H](C)O)[C@@H](C)O)C(C)C` [Agonist P390] (Hexanoyl-HSDAVFTDNYT[Orn]LR[Aib]SVAA[Aib]KYLQSI[Orn]N[Orn]GGPSSGAPPPS-OH; C-terminus assumed), for which the EC50 was determined as 0.12 nM at human VPAC2 [1] and 0.09 nM at rat VPAC2 receptor. Besides, the IC50 on human VPAC2 [2] is 0.26 nM; at human PAC1, above 25000 nM.
Turning to `CCCCCC(=O)N[C@@H](Cc1c[nH]cn1)C(=O)N[C@@H](CO)C(=O)N[C@@H](CC(=O)O)C(=O)N[C@@H](C)C(=O)N[C@H](C(=O)N[C@@H](Cc1ccccc1)C(=O)N[C@H](C(=O)N[C@@H](CC(=O)O)C(=O)N[C@@H](CCC(N)=O)C(=O)N[C@@H](Cc1ccc(O)cc1)C(=O)N[C@H](C(=O)N[C@@H](CCCN)C(=O)N[C@@H](CC(C)C)C(=O)N[C@@H](CCCNC(=N)N)C(=O)NC(C)(C)C(=O)N[C@@H](CCC(N)=O)C(=O)N[C@H](C(=O)N[C@@H](C)C(=O)N[C@@H](C)C(=O)NC(C)(C)C(=O)N[C@@H](CCCN)C(=O)N[C@@H](Cc1ccc(O)cc1)C(=O)N[C@@H](CC(C)C)C(=O)N[C@@H](CCC(N)=O)C(=O)N[C@@H](CO)C(=O)N[C@H](C(=O)N[C@@H](CCCN)C(=O)N[C@@H](CCCN)C(=O)NCC(=O)NCC(=O)N1CCC[C@H]1C(=O)N[C@@H](CO)C(=O)N[C@@H](CO)C(=O)NCC(=O)N[C@@H](C)C(=O)N1CCC[C@H]1C(=O)N1CCC[C@H]1C(=O)N1CCC[C@H]1C(=O)N[C@@H](CO)C(=O)O)[C@@H](C)CC)C(C)C)[C@@H](C)O)[C@@H](C)O)C(C)C` [Agonist P396] (Hexanoyl-HSDAVFTDQYT[Orn]LR[Aib]QVAA[Aib][Orn]YLQSI[Orn][Orn]GGPSSGAPPPS-OH; C-terminus assumed), the EC50 worked out at 0.11 nM on human VPAC2 [1] and 0.05 nM at rat VPAC2 receptor. Moreover, the IC50 at human VPAC2 [2] was 0.26 nM; on human VPAC1, above 3000 nM; at human PAC1, above 25000 nM. The “Rat Serum Stability (estimated purity in % after overnight incub.)” value in data set [3] is on record as 93.07%.
For the compound `CCCCCC(=O)N[C@@H](Cc1c[nH]cn1)C(=O)N[C@@H](CO)C(=O)N[C@@H](CC(=O)O)C(=O)N[C@@H](C)C(=O)N[C@H](C(=O)N[C@@H](Cc1ccccc1)C(=O)N[C@H](C(=O)N[C@@H](CCC(=O)O)C(=O)N[C@@H](CCC(N)=O)C(=O)N[C@@H](Cc1ccc(OC)cc1)C(=O)N[C@H](C(=O)N[C@@H](CCCN)C(=O)N[C@@H](CC(C)C)C(=O)N[C@@H](CCCNC(=N)N)C(=O)NC(C)(C)C(=O)N[C@@H](CCC(N)=O)C(=O)N[C@@H](CC(C)C)C(=O)N[C@@H](C)C(=O)N[C@@H](C)C(=O)NC(C)(C)C(=O)N[C@@H](CCCN)C(=O)N[C@@H](Cc1ccc(O)cc1)C(=O)N[C@@H](CC(C)C)C(=O)N[C@@H](CCC(N)=O)C(=O)N[C@@H](CO)C(=O)N[C@H](C(=O)N[C@@H](CCCN)C(=O)N[C@@H](CCCN)C(=O)NCC(=O)NCC(=O)N1CCC[C@H]1C(=O)N[C@@H](CO)C(=O)N[C@@H](CO)C(=O)NCC(=O)N[C@@H](C)C(=O)N1CCC[C@H]1C(=O)N1CCC[C@H]1C(=O)N1CCC[C@H]1C(=O)N[C@@H](CO)C(N)=O)[C@@H](C)CC)[C@@H](C)O)[C@@H](C)O)C(C)C` [Agonist P487] (Hexanoyl-HSDAVFTEQY(Me)T[Orn]LR[Aib]QLAA[Aib][Orn]YLQSI[Orn][Orn]GGPSSGAPPPS-NH2), the EC50 was found to be 0.24 nM on human VPAC2 [1] and 0.03 nM on rat VPAC2 receptor. Moreover, the IC50 at human VPAC2 [2] was 0.64 nM; at human VPAC1, above 1000 nM. For the same compound, the “Rat Serum Stability (estimated purity in % after overnight incub.)” value in data set [3] is 76.98%.
